Measurements reported in patent US20120264678A1, “METHODS OF USING [3.2.0] HETEROCYCLIC COMPOUNDS AND ANALOGS THEREOF FOR TREATING INFECTIOUS DISEASES” (priority 2007, published 2012).

Legend:
[1] = Maximum tolerated dose determination, intravenous, female BALB/c mice; format: in vivo
Source text: In vivo studies were designed to determine the MTD of Salinosporamide A when administered intravenously to female BALB/c mice.

NF-κB = test: NF-κB/Luc 293 luciferase reporter assay with TNF-α stimulation; format: cell-based, human; conditions: NF-κB/Luc 293 cells, pretreatment before TNF-α
Source text: (§1) Furthermore, a stable HEK293 clone (NF-κB/Luc 293) was generated carrying a luciferase reporter gene under the regulation of 5×NF-κB binding sites.

[2] = system: Mycobacterium tuberculosis; test: Survival assays of Mycobacterium tuberculosis on agar plates after nitrite exposure; format: cell-based; conditions: plating on agar after 6 days of exposure; present-tense example without data
[3] = system: NF-κB/IκB signaling pathway; test: TNF-α stimulated HEK293 cells, IκBα phosphorylation and degradation; format: cell-based, human; conditions: HEK293 cells pre-treated 1 hour, then TNF-α stimulation
Source text: Treatment of HEK293 cells (human embryonic kidney) with Tumor Necrosis Factor-alpha (TNF-α) induces phosphorylation and proteasome-mediated degradation of IκBα followed by NF-κB activation.

IκBα, p21 and p27 = test: Western blot analyses in NF-κB/Luc 293 cells; format: cell-based, human
Source text: as §1

proteasome = proteasome (Homo sapiens, UniProt Q99436); test: Trypsin-like inhibitory activity of the proteasome (summary); format: biochemical; conditions: proteasome source not stated
[4] = target: T1, proteasome chymotrypsin-like activity in Packed Whole Blood Lysate (Mus musculus, UniProt O55234); test: Whole blood proteasome activity (PWBL assay) after dosing of mice; format: in vivo; conditions: male Swiss-Webster mice
T1 construct: The supernatant (Packed Whole Blood Lysate, PWBL) was transferred to a fresh tube; from tissue; host or cells: packed whole blood cells of Swiss-Webster mice, hypotonic lysate
T1 sequence (O55234 60-264): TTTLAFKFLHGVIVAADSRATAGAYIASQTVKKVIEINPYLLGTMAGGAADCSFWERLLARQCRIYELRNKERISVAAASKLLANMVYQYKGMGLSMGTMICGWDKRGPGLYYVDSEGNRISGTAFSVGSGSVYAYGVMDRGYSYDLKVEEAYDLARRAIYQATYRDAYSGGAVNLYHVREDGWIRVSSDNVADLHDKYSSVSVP
Experimental: In brief, frozen whole blood samples were thawed on ice for one hour, and resuspended in 700 μL of ice cold 5 mM EDTA, pH 8.0 in order to lyse the cells by hypotonic shock. This represents approximately 2-3 times the volume of the packed whole blood cells. Lysis was allowed to proceed for one hour, and the cellular debris was removed by centrifugation at 14,000×g for 10 minutes. The supernatant (Packed Whole Blood Lysate, PWBL) was transferred to a fresh tube, and the pellet discarded. Protein concentration of the PWBL was determined by BCA assay (Pierce) using BSA as a standard.
Proteasome activity was determined by measuring the hydrolysis of a fluorogenic substrate specific for the chymotrypsin-like activity of proteasomes (suc-LLVY-AMC, Bachem Cat. 1-1395). […] The reactions were initiated by the addition of 10 μL of 0.4 mM suc-LLVY-AMC (prepared by diluting a 10 mM solution of the peptide in DMSO 1:25 with assay buffer), and incubated in a fluorometer (Labsystems Fluoroskan) at 37° C. Hydrolysis of the substrate results in the release of free AMC, which was measured fluorometrically by using λex=390 nm and λem=460 nm. The rate of hydrolysis in this system is linear for at least one hour. The hydrolysis rate of each sample is then normalized to relative fluorescent units per milligram of protein (RFU/mg).
The vehicle control consisted of 2% DMSO in 10% solutol. […]

any other known protease = conditions: Meng et al., 1999; cited from earlier work
[5] = NF-κB/Luc 293 cells, Western blot

C[C@@]12OC(=O)[C@]1([C@@H](O)[C@@H]1C=CCCC1)NC(=O)[C@@H]2CCCl [Salinosporamide A]
behavioral changes ([1]; during the course of the experiment): No behavioral changes were noted | well tolerated dose ([1]; i.v. daily for five consecutive days (qdx5)): up to 0.1 mg/kg | tolerated dose ([1]; single intravenous dose (qdx1)): up to 0.25 mg/kg | luciferase activity (NF-κB): decreases activity | antimycobacterial effect of nitrite [2]: able to augment the antimycobacterial effect of nitrite | phosphorylated IκBα level [3]: promoted the accumulation of phosphorylated IκBα | EC50 (In vitro cytotoxicity): 10 to 200 nM | levels of cell cycle regulatory proteins p21 and p27 (IκBα, p21 and p27): increase the levels | degradation of total IκBα (IκBα, p21 and p27; [5]): decreased the degradation of total IκBα | phosphorylated-IκBα level (IκBα, p21 and p27; [5]): promoted the accumulation of phosphorylated-IκBα | trypsin-like inhibitory activity (proteasome): ~10 nM | proteasomal activity in PWBL ([4]; blood 90 min after administration, dose dependent (FIG. 4)): profound decrease in proteasomal activity in PWBL | activity upon oral administration (PWBL proteasome inhibition) ([4]; oral dosing): active upon oral administration

CC[C@H](C)[C@H](NC(=O)[C@H]([C@@H](C)CC)N(C)C(C)=O)C(=O)N[C@H](C(=O)N[C@@H](CC(C)C)C(=O)[C@@]1(C)CO1)[C@@H](C)O [Epoxomicin]
inhibitory activity towards other proteases (any other known protease): no inhibitory activity towards any other known protease
